From patent publication US7208500B2, “Thienopyridine-phenylacetamides and their derivatives useful as new anti-angiogenic agents” (Agouron Pharmaceuticals, Inc., priority 2003, dated 2007) come the findings set out here.

A value given as a limit tells only on which side of the number the result lay.

The target of assay [1] is T1, unphosphorylated VEGF-R2D50 (FLVK), cytosolic domain of human VEGF-R2 (Homo sapiens, UniProt P35968, DEL940-989/E990V).
T1 construct: VEGF-R2D50 contains residues 806–939 and 990–1171; made in house; host or cells: baculovirus/insect cell system
In words: VEGF-R2 coupled spectrophotometric assay (FLVK). It is filed as biochemical. The source says: This construct determines the ability of a test compound to inhibit tyrosine kinase activity. A construct (VEGF-R2D50) of the cytosolic domain of human vascular endothelial growth factor receptor 2 (VEGF-R2) lacking the 50 central residues of the 68 residues of the kinase insert domain was expressed in a baculovirus/insect cell system. Of the 1356 residues of full-length VEGF-R2, VEGF-R2D50 contains residues 806–939 and 990–1171, and also one point mutation (E990V) within the kinase insert domain relative to wild-type VEGF-R2. Autophosphorylation of the purified construct was performed by incubation of the enzyme at a concentration of […] in the presence of 3 mM ATP and 40 mM MgCl2 in 100 mM HEPES, pH 7.5, containing 5% glycerol and 5 mM DTT, at 4° C. for 2 h. […] See Parast et al., Biochemistry, 37, 16788–16801 (1998).
The production of ADP from ATP that accompanies phosphoryl transfer was coupled to oxidation of NADH using phosphoenolpyruvate (PEP) and a system having pyruvate kinase (PK) and lactic dehydrogenase (LDH). The oxidation of NADH was monitored by following the decrease of absorbance at 340 nm (e340=6.22 cm^−1 mM^−1) using a Beckman DU 650 spectrophotometer. Assay conditions for phosphorylated VEGF-R2D50 (indicated as FLVK-P in the tables below) were the following: 1 mM PEP; […]; 50 units of LDH/mL; 20 units of PK/mL; 5 mM DTT; 5.1 mM poly(E4Y1); 1 mM ATP; and 25 mM MgCl2 in 200 mM HEPES, pH 7.5. Assay conditions for unphosphorylated VEGF-R2D50 (indicated as FLVK in the tables) were the following: 1 mM PEP; […]; 50 units of LDH/mL; 20 units of PK/mL; 5 mM DTT; 20 mM poly(E4Y1); 3 mM ATP; and 60 mM MgCl2 and 2 mM MnCl2 in 200 mM HEPES, pH 7.5. Assays were initiated with 5 to 40 nM of enzyme. Ki values were determined by measuring enzyme activity in the presence of varying concentrations of test compounds. The percent inhibition at 50 nm (% inhibition@50 nm) was determined by linear least-squares regression analysis of absorpbance as a function of time. The binding inhibitions were fitted to equation as described by Morrison. The data were analyzed using Enzyme Kinetic and Kaleidagraph software.

Assay [2] addresses T2, FGF-R1 intracellular kinase domain (Homo sapiens, UniProt P11362, C488A/C584S/L457V).
T2 construct: starting from the endogenous methionine residue 456 to glutamate 766; made in house; host or cells: baculovirus vector expression system
The assay is described as follows: FGF-R spectrophotometric assay. The format is biochemical. Conditions: 50 nM test compound; read-out: FGF-P (% inh @ 50 nM). The procedure:
The intracellular kinase domain of human FGF-R1 was expressed using the baculovirus vector expression system starting from the endogenous methionine residue 456 to glutamate 766, according to the residue numbering system of Mohammadi et al., Mol. Cell. Biol., 16, 977–989 (1996). In addition, the construct also has the following 3 amino acid substitutions: L457V, C488A, and C584S.
The spectrophotometric assay was carried out as described above for VEGF-R2, except for the following changes in concentration: FGF-R=50 nM, ATP=2 mM, and poly(E4Y1)=15 mM.

T1 sequence (P35968 with tags, fused parts or gaps DEL940-989/E990V limits assumed): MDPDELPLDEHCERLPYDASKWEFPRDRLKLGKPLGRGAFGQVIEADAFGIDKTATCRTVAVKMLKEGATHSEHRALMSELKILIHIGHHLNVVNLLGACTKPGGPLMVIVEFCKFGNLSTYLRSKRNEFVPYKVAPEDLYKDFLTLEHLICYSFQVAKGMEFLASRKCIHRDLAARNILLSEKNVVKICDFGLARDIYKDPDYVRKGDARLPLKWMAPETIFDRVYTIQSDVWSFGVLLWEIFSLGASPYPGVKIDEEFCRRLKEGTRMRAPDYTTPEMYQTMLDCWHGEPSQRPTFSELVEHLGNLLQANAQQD
T2 sequence (P11362 456-766 L457V/C488A/C584S): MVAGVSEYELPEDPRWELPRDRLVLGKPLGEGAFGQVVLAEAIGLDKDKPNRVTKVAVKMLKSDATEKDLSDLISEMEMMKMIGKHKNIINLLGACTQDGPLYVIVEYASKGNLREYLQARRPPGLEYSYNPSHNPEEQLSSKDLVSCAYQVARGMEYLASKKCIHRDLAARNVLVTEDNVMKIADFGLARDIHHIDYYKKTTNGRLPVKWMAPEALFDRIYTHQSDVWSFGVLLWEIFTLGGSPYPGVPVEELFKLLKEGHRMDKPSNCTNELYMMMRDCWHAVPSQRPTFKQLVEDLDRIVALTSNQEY

`Cc1cc(C)nc(NC(=O)Cc2ccc(Oc3ccnc4cc(-c5nccn5C)sc34)c(F)c2)c1` [Example 1, N-(4,6-Dimethyl-pyridin-2-yl)-2-{3-fluoro-4-[2-(1-methyl-1H-imidazol-2-yl)-thieno[3,2-b]pyridin-7-yloxy]-phenyl}-acetamide] gave a Ki in assay [1] of less than 1 nM. The inhibition at 0.05 µM in assay [2] lay in the range of 0 to 5%.

On to `CNC(=O)Cc1ccc(Oc2ccnc3cc(C(=O)N4CC[C@@H](O)C4)sc23)c(F)c1` [Example 2, 2-{3-Fluoro-4-[2-((R)-3-hydroxy-pyrrolidine-1-carbonyl)-thieno[3,2-b]pyridin-7-yloxy]-phenyl}-N-methyl-acetamide], for which the Ki in assay [1] was more than 10 nM. The inhibition at 0.05 µM in assay [2] fell in the range of 0 to 5%.

Regarding `Cc1cc(C)nc(NC(=O)Cc2ccc(Oc3ccnc4cc(C(=O)N(C)CCCN(C)C)sc34)cc2)c1` [Example 5, 7-{4-[(4,6-Dimethyl-pyridin-2-ylcarbamoyl)-methyl]-phenoxy}-thieno[3,2-b]pyridine-2-carboxylic acid (3-dimethylamino-propyl)-methyl-amide], in assay [2], the inhibition at 0.05 µM lay within 0 to 5%.

For `Cc1cccnc1NC(=O)Cc1ccc(Oc2ccnc3cc(C(=O)N4CCC4)sc23)cc1` [Example 26, 2-{4-[2-(Azetidine-1-carbonyl)-thieno[3,2-b]pyridin-7-yloxy]-phenyl}-N-(3-methyl-pyridin-2-yl)-acetamide], in assay [1], the Ki was more than 10 nM.

In the case of `O=C(Cc1ccc(Oc2ccnc3cc(C(=O)N4CCC4)sc23)cc1)Nc1ccncc1` [Example 35, 2-{4-[2-(Azetidine-1-carbonyl)-thieno[3,2-b]pyridin-7-yloxy]-phenyl}-N-pyridin-4-yl-acetamide], the Ki in assay [1] is more than 10 nM. In addition, the inhibition at 0.05 µM in assay [2] was 0 to 5%.

On to `Cc1cc(NC(=O)Cc2ccc(Oc3ccnc4cc(C(=O)N5CCC5)sc34)cc2)n[nH]1` [Example 39, 2-{4-[2-(Azetidine-1-carbonyl)-thieno[3,2-b]pyridin-7-yloxy]-phenyl}-N-(5-methyl-1H-pyrazol-3-yl)-acetamide], for which the inhibition at 0.05 µM in assay [2] was in the range of 0 to 5%.

Take `O=C(Cc1ccc(Oc2ccnc3cc(C(=O)N4CCC4)sc23)cc1)Nc1cc[nH]n1` [Example 40, 2-{4-[2-(Azetidine-1-carbonyl)-thieno[3,2-b]pyridin-7-yloxy]-phenyl}-N-(1H-pyrazol-3-yl)-acetamide]: the Ki in assay [1] is more than 10 nM. Further, the inhibition at 0.05 µM in assay [2] fell in the range of 0 to 5%.

In turn, `O=C(Cc1ccc(Oc2ccnc3cc(C(=O)N4CCC4)sc23)cc1)Nc1ccon1` [Example 42, 2-{4-[2-(Azetidine-1-carbonyl)-thieno[3,2-b]pyridin-7-yloxy]-phenyl}-N-isoxazol-3-yl-acetamide] came in with an inhibition constant (Ki) in assay [1] of more than 10 nM. In addition, the inhibition at 0.05 µM in assay [2] lay in the range of 0 to 5%.

In assay [1], `Cc1coc(NC(=O)Cc2ccc(Oc3ccnc4cc(C(=O)N5CCC5)sc34)cc2Cl)n1` [Example 54, 2-{4-[2-(Azetidine-1-carbonyl)-thieno[3,2-b]pyridin-7-yloxy]-2-chloro-phenyl}-N-(4-methyl-oxazol-2-yl)-acetamide] gave a Ki of more than 10 nM. Moreover, in assay [2], the inhibition at 0.05 µM was 0 to 5%.

`O=C(Cc1ccc(Oc2ccnc3cc(C(=O)N4CCC4)sc23)cc1Cl)NCCCN1CCOCC1` [Example 57, 2-{4-[2-(Azetidine-1-carbonyl)-thieno[3,2-b]pyridin-7-yloxy]-2-chloro-phenyl}-N-(3-morpholin-4-yl-propyl)-acetamide] gave a Ki in assay [1] of more than 10 nM. Besides, in assay [2], the inhibition at 0.05 µM was in the range of 0 to 5%.

In the case of `Cc1ccc(CNC(=O)Cc2ccc(Oc3ccnc4cc(-c5nccn5C)sc34)cc2Cl)o1` [Example 58, 2-{2-Chloro-4-[2-(1-methyl-1H-imidazol-2-yl)-thieno[3,2-b]pyridin-7-yloxy]-phenyl}-N-(5-methyl-furan-2-ylmethyl)-acetamide], in assay [1], the Ki is more than 10 nM. Besides, the inhibition at 0.05 µM in assay [2] is 0 to 5%.

In assay [1], `Cn1ccnc1-c1cc2nccc(Oc3ccc(CC(=O)NCc4cccc(F)c4)c(Cl)c3)c2s1` [Example 59, 2-{2-Chloro-4-[2-(1-methyl-1H-imidazol-2-yl)-thieno[3,2-b]pyridin-7-yloxy]-phenyl}-N-(3-fluoro-benzyl)-acetamide] yielded a Ki of more than 10 nM. Moreover, the inhibition at 0.05 µM in assay [2] lay in the range of 0 to 5%.

As for `CNC(=O)Cc1ccc(Oc2ccnc3cc(C(=O)N4CCC4)sc23)cc1Cl` [Example 63, 2-{4-[2-(Azetidine-1-carbonyl)-thieno[3,2-b]pyridin-7-yloxy]-2-chloro-phenyl}-N-methyl-acetamide], the Ki in assay [1] was more than 10 nM. Also, in assay [2], the inhibition at 0.05 µM lay within 0 to 5%.

On to `CNC(=O)Cc1ccc(Oc2ccnc3cc(C(=O)N4CC[C@@H](O)C4)sc23)cc1Cl` [Example 64, 2-{2-Chloro-4-[2-((R)-3-hydroxy-pyrrolidine-1-carbonyl)-thieno[3,2-b]pyridin-7-yloxy]-phenyl}-N-methyl-acetamide], for which the Ki in assay [1] is more than 10 nM. The inhibition at 0.05 µM in assay [2] was in the range of 0 to 5%.

As for `CNC(=O)Cc1ccc(Oc2ccnc3cc(-c4nccn4C)sc23)cc1Cl` [Example 65, 2-{2-Chloro-4-[2-(1-methyl-1H-imidazol-2-yl)-thieno[3,2-b]pyridin-7-yloxy]-phenyl}-N-methyl-acetamide], in assay [1], the Ki is more than 10 nM. Besides, in assay [2], the inhibition at 0.05 µM was 0 to 5%.

The molecule `CNC(=O)C1(c2ccc(Oc3ccnc4cc(C(=O)N5CC[C@@H](O)C5)sc34)cc2)CC1` [Example 67, 1-{4-[2-((R)-3-Hydroxy-pyrrolidine-1-carbonyl)-thieno[3,2-b]pyridin-7-yloxy]-phenyl}-cyclopropanecarboxylic acid methylamide] yielded a Ki in assay [1] of more than 10 nM. The inhibition at 0.05 µM in assay [2] lay within 0 to 5%.

The molecule `CNC(=O)Cc1ccc(Oc2ccnc3cc(C(=O)N4CC[C@H](OC)C4)sc23)cc1` [Example 68, 2-{4-[2-((S)-3-Methoxy-pyrrolidine-1-carbonyl)-thieno[3,2-b]pyridin-7-yloxy]-phenyl}-N-methyl-acetamide] displayed a Ki in assay [1] of more than 10 nM. Also, the inhibition at 0.05 µM in assay [2] was 0 to 5%.

`CNC(=O)C(OC)c1ccc(Oc2ccnc3cc(C(=O)N4CC[C@@H](O)C4)sc23)cc1Cl` (stereo partly drawn) [Example 70, 2-{2-Chloro-4-[2-((R)-3-hydroxy-pyrrolidine-1-carbonyl)-thieno[3,2-b]pyridin-7-yloxy]-phenyl}-2-methoxy-N-methyl-acetamide] had a Ki in assay [1] of more than 10 nM. Besides, the inhibition at 0.05 µM in assay [2] is 5 to 10%.

In turn, `CNC(=O)C(O)c1ccc(Oc2ccnc3cc(C(=O)N4CC[C@@H](O)C4)sc23)cc1Cl` (stereo partly drawn) [Example 71, 2-{2-Chloro-4-[2-((R)-3-hydroxy-pyrrolidine-1-carbonyl)-thieno[3,2-b]pyridin-7-yloxy]-phenyl}-2-hydroxy-N-methyl-acetamide] registered a Ki in assay [1] of more than 10 nM. For the same molecule, in assay [2], the inhibition at 0.05 µM lay in the range of 0 to 5%.

In the case of `CNC(=O)C(OC)c1ccc(Oc2ccnc3cc(-c4nccn4C)sc23)cc1Cl` (stereo not drawn) [Example 72, 2-{2-Chloro-4-[2-(1-methyl-1H-imidazol-2-yl)-thieno[3,2-b]pyridin-7-yloxy]-phenyl}-2-methoxy-N-methyl-acetamide], in assay [2], the inhibition at 0.05 µM lay in the range of 0 to 5%.

For `CNC(=O)C(O)c1ccc(Oc2ccnc3cc(-c4nccn4C)sc23)cc1Cl` (stereo not drawn) [Example 73, 2-{2-Chloro-4-[2-(1-methyl-1H-imidazol-2-yl)-thieno[3,2-b]pyridin-7-yloxy]-phenyl}-2-hydroxy-N-methyl-acetamide], the inhibition at 0.05 µM in assay [2] lay within 0 to 5%.

For `CNC(=O)C(O)c1ccc(Oc2ccnc3cc(-c4nc(C(C)(C)O)cs4)sc23)cc1` (stereo not drawn) [Example 75, 2-Hydroxy-2-(4-{2-[4-(1-hydroxy-1-methyl-ethyl)-thiazol-2-yl]-thieno[3,2-b]pyridin-7-yloxy}-phenyl)-N-methyl-acetamide], the Ki in assay [1] was more than 10 nM. For the same molecule, the inhibition at 0.05 µM in assay [2] lay within 0 to 5%.

The Ki is the dissociation constant of the complex between target and ligand, obtained from inhibition or displacement. A lower Ki goes with tighter binding.
